Laboratory results: patent US20100092549A1, “Dosage Form Containing Two or More Active Pharmaceutical Ingredients in Different Physical Forms” (priority 2007, published 2010)
Structures can show the parent of a compound that is named as a salt.

Experiment: Related substance testing by HPLC on interaction samples after storage
Format: physicochemical
[1] = 40/75: incubator 40° C./75% RH for 6 days

Procedure: The APIs alone and two initial, conventional finished dosage forms were analysed under three different storage conditions, ie. cold room storage, kept in an oven at 60° C. for 7 days and stored in an incubator held at 40° C./75% RH for 6 days. The mixtures of one or both APIs with an excipient were analysed under two different storage conditions, ie. kept in an oven at 60° C. for 7 days and stored in an incubator held at 40° C./75% RH for 6 days.
The list of samples are as follows: • Fluoxetine HCl alone • Olanzapine alone • Fluoxetine HCl/Olanzapine Capsules • Fluoxetine HCl+Microcrystalline cellulose • Fluoxetine HCl+Pregelatinised maize starch • Fluoxetine HCl+Maize starch • Fluoxetine HCl+Magnesium stearate • Fluoxetine HCl+Olanzapine • Fluoxetine HCl+Olanzapine+Microcrystalline cellulose • Fluoxetine HCl+Olanzapine+Pregelatinised maize starch • Fluoxetine HCl+Olanzapine+Maize starch • Fluoxetine HCl+Olanzapine+Magnesium stearate • Olanzapine Tablets • Olanzapine+Lactose monohydrate • Olanzapine+Microcrystalline cellulose • Olanzapine+Maize starch • Olanzapine+Pregelatinised maize starch • Olanzapine+Crospovidone • Olanzapine+Magnesium stearate • Olanzapine+Opadry® II coating ingredients
The samples were analysed after the allotted period of time and the level of known and unknown related substances were determined by HPLC.

Impurity 1 (unknown related substance) [1]: 0.041
Impurity 2 (unknown related substance) [1]: 0.069
Impurity 1 (unknown related substance) (CR: cold room storage): 0.034
Impurity 2 (unknown related substance) (CR: cold room storage): 0.068
Impurity 1 (unknown related substance) (Oven: 60° C. for 7 days): 0.039
Impurity 2 (unknown related substance) (Oven: 60° C. for 7 days): 0.067
Structure (SMILES): CNCCC(Oc1ccc(C(F)(F)F)cc1)c1ccccc1 (stereo not drawn) [Fluox API, Fluoxetine HCl]
